Data: publication doi:10.1101/2022.04.14.488411v1 (biorxiv, 2022)
Where two headings read alike, the source gives them in different places.

Key:
RPMI 8226 [1] = test: cells; conditions: Homo sapiens, RPMI-8226, 72 h, read-out: IC50 (uM)
ABCG2 [2] = test: cells; conditions: Homo sapiens, RPMI-8226, 72 h, read-out: IC50 (uM)
RPMI 8226 [3] = test: cells; conditions: Homo sapiens, RPMI-8226, 72 h, read-out: IC50 (uM); remark: listed apart in the source
ABCG2 [4] = molecular target: T1, ABCG2 (Homo sapiens, UniProt Q9UNQ0); test: potentiation of TAK-243 cytotoxicity, Resazurin viability; format: cell-based
T1 sequence (Q9UNQ0 1-655): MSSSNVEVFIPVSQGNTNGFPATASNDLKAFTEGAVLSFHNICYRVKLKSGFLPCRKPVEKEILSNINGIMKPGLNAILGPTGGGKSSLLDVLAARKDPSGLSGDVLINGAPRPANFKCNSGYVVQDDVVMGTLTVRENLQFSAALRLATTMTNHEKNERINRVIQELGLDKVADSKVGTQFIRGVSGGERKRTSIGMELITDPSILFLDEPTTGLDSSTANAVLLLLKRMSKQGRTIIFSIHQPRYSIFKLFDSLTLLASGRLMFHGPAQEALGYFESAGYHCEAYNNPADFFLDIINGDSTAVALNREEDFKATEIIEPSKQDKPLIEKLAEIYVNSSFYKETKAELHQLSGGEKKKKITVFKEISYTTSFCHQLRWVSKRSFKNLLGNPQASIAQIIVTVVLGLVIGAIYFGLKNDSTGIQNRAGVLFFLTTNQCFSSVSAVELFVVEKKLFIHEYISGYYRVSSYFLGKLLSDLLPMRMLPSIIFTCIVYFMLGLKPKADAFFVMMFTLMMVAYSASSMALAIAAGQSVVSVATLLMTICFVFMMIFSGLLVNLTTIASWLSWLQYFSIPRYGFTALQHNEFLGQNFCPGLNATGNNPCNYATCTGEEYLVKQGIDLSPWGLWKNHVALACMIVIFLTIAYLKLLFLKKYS

MDAY-D2 = test: cells; conditions: Mus musculus, MDAY-D2, 72 h, read-out: IC50 (nM)
RPMI 8226 [5] = test: cells; parameters: species or system KMS11; conditions: Homo sapiens, RPMI-8226, 72 h, read-out: IC50 (nM), TAK-243 alone
RPMI 8226 [6] = test: cells; parameters: species or system KMS11; conditions: Homo sapiens, RPMI-8226, 72 h, read-out: IC50 (nM), TAK-243 alone; remark: listed apart in the source
RPMI 8226 [7] = test: cells; conditions: Homo sapiens, RPMI-8226, 72 h, read-out: IC50 (nM)
NB4 = test: cells; conditions: Homo sapiens, NB-4, 72 h, read-out: IC50 (nM)
OCI-M2 = test: cells; conditions: OCI-M2, 72 h, read-out: IC50 (nM)
MCF7 = test: cells; conditions: Homo sapiens, MCF7, 72 h, read-out: IC50 (nM)
U937 = test: cells; conditions: Homo sapiens, U-937, 72 h, read-out: IC50 (nM)
HepG2 = test: cells; conditions: Homo sapiens, HepG2, 72 h, read-out: IC50 (nM)
HEK293 = test: cells; conditions: Homo sapiens, HEK293, 72 h, read-out: IC50 (nM)
K562 = test: cells; conditions: Homo sapiens, K562, 72 h, read-out: IC50 (nM)
OCI-AML2 = test: cells; conditions: Homo sapiens, OCI-AML2, 72 h, read-out: IC50 (nM)
MV4-11 = test: cells; conditions: Homo sapiens, MV4-11, 72 h, read-out: IC50 (nM)
Jurkat = test: cells; conditions: Homo sapiens, Jurkat, 72 h, read-out: IC50 (nM)
A549 = test: cells; conditions: Homo sapiens, A549, 72 h, read-out: IC50 (nM)
KMS11 = test: cells; parameters: species or system RPMI 8226; conditions: Homo sapiens, KMS-11, 72 h, read-out: IC50 (nM)
RPMI 8226 [8] = test: cells; conditions: Homo sapiens, RPMI-8226, 72 h, read-out: IC50 (uM); remark: listed apart in the source

## N#Cc1ccnc(N2C(=O)CC[C@H]2C(=O)N(c2cncc(F)c2)[C@H](C(=O)NC2CC(F)(F)C2)c2ccccc2Cl)c1 [Ivosidenib]
RPMI 8226 [1]
  IC50: > 10 µM
ABCG2 [2]
  IC50: > 10 µM

## COc1ccc(CCc2nc3cc(-c4c(C)noc4C)ccc3n2C[C@H](C)N2CCOCC2)cc1Cl [SGC-CBP30]
RPMI 8226 [3]
  IC50: > 10 µM

## CO[C@H]1CC[C@H](n2c([C@@H]3CCCC(=O)N3c3ccc(F)c(F)c3)nc3cc(-c4c(C)noc4C)ccc32)CC1 [Inobrodib]
RPMI 8226 [1]
  IC50: 7.62 µM

## Clc1cc2c(NC3CCCC3)nnc(-c3ccncc3)c2cc1Cl [A-196]
ABCG2 [4]
  apparent IC50: 521.8 nM
RPMI 8226 [3]
  IC50: > 10 µM

## COc1ccccc1C(=O)Nc1cc2c(cc1N1CCCC1)n(C)c(=O)n2C [PFI-4]
RPMI 8226 [3]
  IC50: > 10 µM

## NS(=O)(=O)OC[C@H]1C[C@@H](Nc2ccnc3cc(-c4cccc(SC(F)(F)F)c4)nn23)[C@H](O)[C@@H]1O [TAK-243]
MDAY-D2
  IC50: 1230 nM
RPMI 8226 [5]
  IC50: 558 nM
RPMI 8226 [6]
  IC50: 578 nM
RPMI 8226 [7]
  IC50: 1370 nM
NB4
  IC50: 10.1 nM
OCI-M2
  IC50: 44 nM
MCF7
  IC50: 404 nM
U937
  IC50: 17.9 nM
HepG2
  IC50: 60.1 nM
HEK293
  IC50: 177 nM
K562
  IC50: 6.43 nM
OCI-AML2
  IC50: 27.1 nM
MV4-11
  IC50: 19.4 nM
Jurkat
  IC50: 12.2 nM
A549
  IC50: 1290 nM
KMS11
  IC50: 685 nM

## CCCc1cc(C)[nH]c(=O)c1CNC(=O)c1cc(-c2ccc(N3CCN(C(C)C)CC3)nc2)cc2c1cnn2C(C)C [UNC1999]
RPMI 8226 [3]
  IC50: > 10 µM

## O=C1c2c(O)ccc(O)c2C(=O)c2c(NCCNCCO)ccc(NCCNCCO)c21 [MTX, mitoxantrone]
RPMI 8226 [8]
  IC50: 0.0786 µM

## COc1cc(-c2cn(C)c(=O)c3cnccc23)c(OC)cc1CN(C)C [BI-9564]
RPMI 8226 [1]
  IC50: > 10 µM
ABCG2 [2]
  IC50: > 10 µM

## COc1c(C)cc(NC(=O)c2nn(Cc3ccc(F)cc3)c3c2CN(C(=O)c2ccc[nH]2)C[C@]3(C)C(N)=O)cc1C [GSK-864]
RPMI 8226 [3]
  IC50: > 10 µM

## NS(=O)(=O)OC[C@@H]1C[C@@H](n2ccc3c(N[C@H]4CCc5ccccc54)ncnc32)C[C@@H]1O [Pevo, pevonedistat]
RPMI 8226 [8]
  IC50: 0.997 µM
